From publication PMC8607422, “Development of a novel TLR8 agonist for cancer immunotherapy” (Molecular Biomedicine, 2020)

Columns and labels:
[1] = set-up: method as in Northfelt, et al., [39]; details: human, sc 0.1 mg/m^2; ref Northfelt, et al., [39]; cited from earlier work
hTLR7 = molecular target: T1, hTLR7 (Homo sapiens, UniProt Q9NYK1); experiment: HEK-Blue hTLR7 SEAP reporter agonist assay; type: cell-based; details: HEK-Blue hTLR7 cells, highest concentration 50 μM
T1 construct: host or cells: HEK-Blue hTLR7
T1 sequence (Q9NYK1 27-1049): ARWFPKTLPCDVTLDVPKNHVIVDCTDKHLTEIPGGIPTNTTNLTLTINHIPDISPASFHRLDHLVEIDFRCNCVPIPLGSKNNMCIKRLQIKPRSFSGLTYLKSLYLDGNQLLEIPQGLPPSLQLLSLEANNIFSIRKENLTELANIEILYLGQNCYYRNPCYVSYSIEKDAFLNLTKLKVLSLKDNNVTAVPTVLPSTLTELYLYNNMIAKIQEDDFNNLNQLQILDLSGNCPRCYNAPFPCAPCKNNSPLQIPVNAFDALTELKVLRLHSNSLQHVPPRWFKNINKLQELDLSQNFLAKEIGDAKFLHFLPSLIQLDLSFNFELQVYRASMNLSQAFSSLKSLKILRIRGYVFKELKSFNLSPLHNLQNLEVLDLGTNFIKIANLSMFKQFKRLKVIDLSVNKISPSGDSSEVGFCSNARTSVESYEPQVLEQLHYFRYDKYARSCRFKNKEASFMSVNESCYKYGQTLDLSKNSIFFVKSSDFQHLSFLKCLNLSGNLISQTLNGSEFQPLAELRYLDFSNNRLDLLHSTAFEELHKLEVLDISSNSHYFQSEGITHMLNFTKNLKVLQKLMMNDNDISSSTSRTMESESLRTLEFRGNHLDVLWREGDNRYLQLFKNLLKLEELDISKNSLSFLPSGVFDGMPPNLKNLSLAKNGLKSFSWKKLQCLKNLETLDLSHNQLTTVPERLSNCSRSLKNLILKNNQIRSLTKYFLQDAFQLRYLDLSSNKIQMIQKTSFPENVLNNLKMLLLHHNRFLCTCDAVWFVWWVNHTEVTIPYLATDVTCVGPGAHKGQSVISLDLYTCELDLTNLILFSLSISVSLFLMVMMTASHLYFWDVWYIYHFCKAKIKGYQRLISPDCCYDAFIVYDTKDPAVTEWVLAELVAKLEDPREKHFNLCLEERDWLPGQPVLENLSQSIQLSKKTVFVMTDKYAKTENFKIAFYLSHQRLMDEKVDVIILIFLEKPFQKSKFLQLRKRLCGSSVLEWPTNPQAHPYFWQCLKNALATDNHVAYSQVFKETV
Source text: HEK-Blue™ hTLR4, 7, 8 and 9 cell lines were purchased from InvivoGen (Hong Kong). The cells express the human TLR gene and NF-κB/AP-1-inducible SEAP (secreted embryonic alkaline phosphatase) reporter gene. SEAP levels produced upon TLR stimulation can be determined by QUANTI-Blue™. In the cell-based assay, the main reagents used were QUANTI-Blue™ (InvivoGen) and ATPlite 1 Step (Perkin Elmer). The main instruments used were the microplate reader SpectraMax 340PC (Molecular Device) and Envision (Perkin Elmer). Motolimod and DN052 were synthesized in house. […] The compounds were in 10 mM stock solution in DMSO and stored at − 20°C. The compounds were serially diluted in the concentration range from 0.5 nM to 15 μM (up to 50 μM in the hTLR4, hTLR7 and hTLR9 assays) and added to 96-well plates. DMSO was used as the negative control. LPS-EK, R848, motolimod and ODN2006 were used as the positive control for TLR4, 7, 8 and 9, respectively. The cells were cultured and treated with the compounds at 37°C, 5%CO2 for 24 h. […] After 1.5 h of incubation, the optical density was measured using the spectrophotometer at 650 nm in the microplate reader of SpectraMax 340PC. The cell viability of each well was determined using ATPlite 1 Step following the manufacturer’s instruction. The luminescence signal in each well of plates was measured in the microplate reader of Envision.

HL-60 cells = experiment: Nitroblue Tetrazolium (NBT) cell differentiation assay; type: cell-based; details: Homo sapiens, unit from concentration axis
Source text: Supplementary file 43556_2020_7_MOESM1_ESM.pdf: Additional file 1: Supplementary Fig. 1. […] Suplementary Fig. 2. […] Supplementary Fig. 3. Nitroblue Tetrazolium (NBT) cell differentiation assay. […] Supplementary Fig. 4. Representative data from human PBMC assay. […] Similar results were obtained from two different donors.

EC50 (hTLR7): 19.8 µM | EC50 (HL-60 cells): 1.43 µM
Compound: CCCN(CCC)C(=O)C1=Cc2ccc(-c3ccc(C(=O)N4CCCC4)cc3)cc2N=C(N)C1 [Motolimod, motolimod]
AUC(0-t) [1]: 2.99 ng·h/mL | Cmax [1]: 1.52 ng/mL | Tmax [1]: 0.53 h | t1/2 [1]: 1.73 h
